One experiment relates to hMPV-GFP virus. Description: microbe, parasite or virus in culture. The experiment is classed as cell-based, human metapneumovirus. The method in brief: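 VERO cells infected with GFP-expressing hMPV at MOI 1.25 were incubated 48 h at 37 °C with compound in 10-point 3-fold dilutions (typically 40,300–2 nM final). GFP-positive cells were counted by imaging. Same-well CellTiter-Glo gave cytotoxicity, and IC50/CC50 came from 4-parameter logistic fits.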

The subject of another experiment is RSV-A2-GFP virus. Description: microbe, parasite or virus in culture. The experiment is classed as cell-based, Human Respiratory Syncytial Virus. The method in brief: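 Assay-ready frozen Calu-1 cells at 20,000 cells/mL were infected with recombinant RSV-A2-GFP (MOI 1.2) in DMEM with 2% FBS. Cells were exposed to 10-point 3-fold compound dilutions for 96 h at 37° C. GFP-positive cells were counted by imaging, with same-well CellTiter-Glo for cytotoxicity, and IC50 and CC50 came from 4-parameter logistic fits.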

Where [1] appears, read: VERO cells infected with hMPV-GFP, 48 hrs, GFP-expressing cells counted, read-out: hMPV EC50.
[2] abbreviates: Calu-1 cells infected with RSV-A2-GFP, 96 hrs, GFP-expressing cells counted, read-out: RSV EC50.
[3] abbreviates: human metapneumovirus, Vero, 48 h, read-out: hMPV EC50, VERO cells infected with hMPV-GFP, 48 hrs, GFP-expressing cells counted.
The mark [4] stands for this setting: human respiratory syncytial virus, Calu-1, 96 h, read-out: RSV EC50, Calu-1 cells infected with RSV-A2-GFP, 96 hrs, GFP-expressing cells counted.

pEC50: −log10 of the molar value. Read-outs that look alike come from different tables or passages of the source. Where only a bound is given, the exact number is not on record here.

EC50 data for 19 molecules are collected here from patent US12643882B2, “Inhibitors of human respiratory syncytial virus and metapneumovirus” (priority 2022, dated 2026).

For orientation: pEC50 means the EC50 on a negative log10 scale, so that one unit is a factor of ten. `Cc1nc(-c2ncccn2)[nH]c1C(=O)N1C[C@@H]2[C@H](C1)[C@H]2Oc1cc(C(C)(C)N)cc(-c2ccc(F)cc2)n1` [Example 75, ((1R,5S,6s)-6-((4-(2-aminopropan-2-yl)-6-(4-fluorophenyl)pyridin-2-yl)oxy)-3-azabicyclo[3.1.0]hexan-3-yl)(4-methyl-2-(pyrimidin-2-yl)-1H-imidazol-5-yl)methanone]: the results for the pEC50 in the experiment on hMPV-GFP virus (setting [1]) and in the experiment on RSV-A2-GFP virus (setting [2]) were under 7.00 and 7.00 to 8.00, respectively.

In the case of `Cc1nn(-c2ncccn2)nc1C(=O)N1C[C@@H]2[C@H](C1)[C@H]2Oc1cc(C(C)(C)N)cc(-c2ccc(F)cc2)n1` [Example 76, ((1R,5S,6s)-6-((4-(2-aminopropan-2-yl)-6-(4-fluorophenyl)pyridin-2-yl)oxy)-3-azabicyclo[3.1.0]hexan-3-yl)(5-methyl-2-(pyrimidin-2-yl)-2H-1,2,3-triazol-4-yl)methanone], the pEC50 is under 7.00 in the experiment with hMPV-GFP virus (setting [1]) and 7.00 to 8.00 with RSV-A2-GFP virus (setting [2]).

`CC(C)(N)c1cc(O[C@H]2[C@@H]3CN(C(=O)c4cc(-c5ncccn5)ns4)C[C@@H]32)nc(-c2ccc(F)cc2)c1` [Example 77, ((1R,5S,6s)-6-((4-(2-aminopropan-2-yl)-6-(4-fluorophenyl)pyridin-2-yl)oxy)-3-azabicyclo[3.1.0]hexan-3-yl)(3-(pyrimidin-2-yl)isothiazol-5-yl)methanone]: the pEC50 in the experiment with hMPV-GFP virus (setting [1]) was under 7.00; with RSV-A2-GFP virus (setting [2]), over 8.00.

Consider `Cc1nc(-c2ncccn2)oc1C(=O)N1C[C@@H]2[C@H](C1)[C@H]2Oc1cc(C(C)(C)N)cc(-c2ccc(F)cc2)n1` [Example 78, ((1R,5S,6s)-6-((4-(2-aminopropan-2-yl)-6-(4-fluorophenyl)pyridin-2-yl)oxy)-3-azabicyclo[3.1.0]hexan-3-yl)(4-methyl-2-(pyrimidin-2-yl)oxazol-5-yl)methanone], for which the pEC50 with hMPV-GFP virus (setting [3]) was under 7.00; in the experiment on RSV-A2-GFP virus (setting [4]), 7.00 to 8.00.

As for `Cc1nn(-c2ncccn2)c(F)c1C(=O)N1C[C@@H]2[C@H](C1)[C@H]2Oc1cc(C(C)(C)N)cc(-c2ccc(F)cc2)n1` [Example 79, ((1R,5S,6s)-6-((4-(2-aminopropan-2-yl)-6-(4-fluorophenyl)pyridin-2-yl)oxy)-3-azabicyclo[3.1.0]hexan-3-yl)(5-fluoro-3-methyl-1-(pyrimidin-2-yl)-1H-pyrazol-4-yl)methanone], the pEC50 in the experiment with hMPV-GFP virus (setting [3]) is under 7.00; with RSV-A2-GFP virus (setting [4]) it was over 8.00.

Take `Cc1nn(-c2ncccn2)cc1C(=O)N1C[C@@H]2[C@H](C1)[C@H]2Oc1cc(C(C)(C)N)cc(-c2ccc(F)c(F)c2)n1` [Example 80, ((1R,5S,6s)-6-((4-(2-aminopropan-2-yl)-6-(3,4-difluorophenyl)pyridin-2-yl)oxy)-3-azabicyclo[3.1.0]hexan-3-yl)(3-methyl-1-(pyrimidin-2-yl)-1H-pyrazol-4-yl)methanone]: the pEC50 is 7.00 to 8.00 in the experiment with hMPV-GFP virus (setting [3]) and over 8.00 in the experiment on RSV-A2-GFP virus (setting [4]).

In the case of `Cc1nn(-c2ncccn2)cc1C(=O)N1C[C@@H]2[C@H](C1)[C@H]2Oc1cc(C(C)(C)N)cc(-c2cc(F)c(F)cc2F)n1` [Example 81, ((1R,5S,6s)-6-((4-(2-aminopropan-2-yl)-6-(2,4,5-trifluorophenyl)pyridin-2-yl)oxy)-3-azabicyclo[3.1.0]hexan-3-yl)(3-methyl-1-(pyrimidin-2-yl)-1H-pyrazol-4-yl)methanone], the pEC50 was 7.00 to 8.00 with hMPV-GFP virus (setting [1]) and over 8.00 in the experiment with RSV-A2-GFP virus (setting [2]).

As to `Cc1nn(-c2ncccn2)cc1C(=O)N1C[C@@H]2[C@H](C1)[C@H]2Oc1cc(C(C)(C)N)cc(-c2cc(F)c(F)c(F)c2)n1` [Example 82, ((1R,5S,6s)-6-((4-(2-aminopropan-2-yl)-6-(3,4,5-trifluorophenyl)pyridin-2-yl)oxy)-3-azabicyclo[3.1.0]hexan-3-yl)(3-methyl-1-(pyrimidin-2-yl)-1H-pyrazol-4-yl)methanone], the values for the pEC50 with hMPV-GFP virus (setting [1]) and in the experiment with RSV-A2-GFP virus (setting [2]) were 7.00 to 8.00 and over 8.00, respectively.

`Cc1nn(-c2ncccn2)cc1C(=O)N1C[C@@H]2[C@H](C1)[C@H]2Oc1cc(C(C)(C)N)cc(-c2ccc(F)c(Cl)c2)n1` [Example 83, ((1R,5S,6s)-6-((4-(2-aminopropan-2-yl)-6-(3-chloro-4-fluorophenyl)pyridin-2-yl)oxy)-3-azabicyclo[3.1.0]hexan-3-yl)(3-methyl-1-(pyrimidin-2-yl)-1H-pyrazol-4-yl)methanone]: the negative logarithm of the EC50 (pEC50) in the experiment on hMPV-GFP virus (setting [1]) is under 7.00; in the experiment on RSV-A2-GFP virus (setting [2]), over 8.00.

Take `Cc1nn(-c2ncccn2)cc1C(=O)N1C[C@@H]2[C@H](C1)[C@H]2Oc1cc(C(C)(C)N)cc(-c2ccc(Cl)c(F)c2)n1` [Example 84, ((1R,5S,6s)-6-((4-(2-aminopropan-2-yl)-6-(4-chloro-3-fluorophenyl)pyridin-2-yl)oxy)-3-azabicyclo[3.1.0]hexan-3-yl)(3-methyl-1-(pyrimidin-2-yl)-1H-pyrazol-4-yl)methanone]: the figures for the pEC50 with hMPV-GFP virus (setting [1]) and in the experiment with RSV-A2-GFP virus (setting [2]) were under 7.00 and over 8.00, respectively.

For the molecule `Cc1nn(-c2ncccn2)cc1C(=O)N1C[C@@H]2[C@H](C1)[C@H]2Oc1cc(C(C)(C)N)cc(-c2ccc(Cl)cc2)n1` [Example 85, ((1R,5S,6s)-6-((4-(2-aminopropan-2-yl)-6-(4-chlorophenyl)pyridin-2-yl)oxy)-3-azabicyclo[3.1.0]hexan-3-yl)(3-methyl-1-(pyrimidin-2-yl)-1H-pyrazol-4-yl)methanone], the pEC50 in the experiment on hMPV-GFP virus (setting [1]) was 7.00 to 8.00; with RSV-A2-GFP virus (setting [2]) it was over 8.00.

Turning to `Cc1nn(-c2ncccn2)cc1C(=O)N1C[C@@H]2[C@H](C1)[C@H]2Oc1cc(C(C)(C)N)cc(-c2ccc(C(F)(F)F)cc2)n1` [Example 86, ((1R,5S,6s)-6-((4-(2-aminopropan-2-yl)-6-(4-(trifluoromethyl)phenyl)pyridin-2-yl)oxy)-3-azabicyclo[3.1.0]hexan-3-yl)(3-methyl-1-(pyrimidin-2-yl)-1H-pyrazol-4-yl)methanone], the results for the pEC50 in the experiment on hMPV-GFP virus (setting [1]) and with RSV-A2-GFP virus (setting [2]) were 7.00 to 8.00 and over 8.00, respectively.

For `Cc1nn(-c2ncccn2)cc1C(=O)N1C[C@@H]2[C@H](C1)[C@H]2Oc1cc(C(C)(C)N)cc(-c2ccc(C(F)(F)F)nc2)n1` [Example 87, ((1R,5S,6s)-6-((4-(2-aminopropan-2-yl)-6′-(trifluoromethyl)-[2,3′-bipyridin]-6-yl)oxy)-3-azabicyclo[3.1.0]hexan-3-yl)(3-methyl-1-(pyrimidin-2-yl)-1H-pyrazol-4-yl)methanone], the figures for the pEC50 in the experiment with hMPV-GFP virus (setting [1]) and in the experiment on RSV-A2-GFP virus (setting [2]) were under 7.00 and over 8.00, respectively.

`COc1cc(C(F)(F)F)ccc1-c1cc(C(C)(C)N)cc(O[C@H]2[C@@H]3CN(C(=O)c4cn(-c5ncccn5)nc4C)C[C@@H]32)n1` [Example 88, ((1R,5S,6s)-6-((4-(2-aminopropan-2-yl)-6-(2-methoxy-4-(trifluoromethyl)phenyl)pyridin-2-yl)oxy)-3-azabicyclo[3.1.0]hexan-3-yl)(3-methyl-1-(pyrimidin-2-yl)-1H-pyrazol-4-yl)methanone]: the pEC50 was under 7.00 in the experiment on hMPV-GFP virus (setting [1]) and over 8.00 in the experiment with RSV-A2-GFP virus (setting [2]).

On to `Cc1nn(-c2ncccn2)cc1C(=O)N1C[C@@H]2[C@H](C1)[C@H]2Oc1cc(C(C)(C)N)cc(-c2cc3ccccc3[nH]2)n1` [Example 89, ((1R,5S,6s)-6-((4-(2-aminopropan-2-yl)-6-(1H-indol-2-yl)pyridin-2-yl)oxy)-3-azabicyclo[3.1.0]hexan-3-yl)(3-methyl-1-(pyrimidin-2-yl)-1H-pyrazol-4-yl)methanone], for which the negative-log EC50 (pEC50) with hMPV-GFP virus (setting [1]) is under 7.00; with RSV-A2-GFP virus (setting [2]), over 8.00.

For the molecule `Cc1nn(-c2ncccn2)cc1C(=O)N1C[C@@H]2[C@H](C1)[C@H]2Oc1cc(C(C)(C)N)cc(C2=CCC(C)(C)CC2)n1` [Example 90, ((1R,5S,6s)-6-((4-(2-aminopropan-2-yl)-6-(4,4-dimethylcyclohex-1-en-1-yl)pyridin-2-yl)oxy)-3-azabicyclo[3.1.0]hexan-3-yl)(3-methyl-1-(pyrimidin-2-yl)-1H-pyrazol-4-yl)methanone], the pEC50 in the experiment with hMPV-GFP virus (setting [1]) is under 7.00; with RSV-A2-GFP virus (setting [2]), over 8.00.

For `CC(C)(N)c1cc(O[C@H]2[C@@H]3CN(C(=O)c4cn(-c5ncccn5)nc4C(F)F)C[C@@H]32)nc(-c2ccc(F)c(F)c2)c1` [Example 91, ((1R,5S,6s)-6-((4-(2-aminopropan-2-yl)-6-(3,4-difluorophenyl)pyridin-2-yl)oxy)-3-azabicyclo[3.1.0]hexan-3-yl)(3-(difluoromethyl)-1-(pyrimidin-2-yl)-1H-pyrazol-4-yl)methanone], the pEC50 with hMPV-GFP virus (setting [1]) was under 7.00; with RSV-A2-GFP virus (setting [2]), over 8.00.

For `CC(C)(N)c1cc(O[C@H]2[C@@H]3CN(C(=O)c4cn(-c5ncccn5)nc4C(F)(F)F)C[C@@H]32)nc(-c2ccc(F)c(F)c2)c1` [Example 92, ((1R,5S,6s)-6-((4-(2-aminopropan-2-yl)-6-(3,4-difluorophenyl)pyridin-2-yl)oxy)-3-azabicyclo[3.1.0]hexan-3-yl)(1-(pyrimidin-2-yl)-3-(trifluoromethyl)-1H-pyrazol-4-yl)methanone], the figures for the pEC50 in the experiment on hMPV-GFP virus (setting [1]) and with RSV-A2-GFP virus (setting [2]) were under 7.00 and over 8.00, respectively.

For the molecule `CC(C)(N)c1cc(O[C@H]2[C@@H]3CN(C(=O)c4cn(-c5ncccn5)nc4C(F)(F)F)C[C@@H]32)nc(-c2ccc(C(F)(F)F)cc2)c1` [Example 93, ((1R,5S,6s)-6-((4-(2-aminopropan-2-yl)-6-(4-(trifluoromethyl)phenyl)pyridin-2-yl)oxy)-3-azabicyclo[3.1.0]hexan-3-yl)(1-(pyrimidin-2-yl)-3-(trifluoromethyl)-1H-pyrazol-4-yl)methanone], the pEC50 with hMPV-GFP virus (setting [1]) is under 7.00; in the experiment with RSV-A2-GFP virus (setting [2]), over 8.00.
